Measurements taken from US11286268B1, “EIF4E-inhibiting compounds and methods” (EFFECTOR THERAPEUTICS, INC., priority 2019, dated 2022).
pIC50: −log10 of the molar value. Read-outs that look alike come from different tables or passages of the source.

Molecular target: recombinant eIF4E (Homo sapiens (Human), UniProt P06730)
Experiment: Fluorescence polarization competition assay for eIF4E binding potency
Procedure, shortened: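 Protein and fluorescent cap-analog probe (EDA-m7GDP-ATTO-550) were mixed first for 5 min, after which serially diluted compound was added to final 75 nM eIF4E, 20 nM probe, 1% DMSO. Reactions equilibrated 30 min at room temperature before polarization was measured.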

[1] = inhibition of eIF4E/EDA-m7GDP-ATTO-550 binding, calculated IC50 values, Table 4B, read-out: IC50
[2] = fluorescence polarization competition, 75 nM recombinant eIF4E, 20 nM EDA-m7GDP-ATTO-550, IC50 class, read-out: elF4E FP
[3] = inhibition of eIF4E/EDA-m7GDP-ATTO-550 binding by 50%, Table 4B calculated values, read-out: IC50

Chain of recombinant eIF4E (P06730 whole entry): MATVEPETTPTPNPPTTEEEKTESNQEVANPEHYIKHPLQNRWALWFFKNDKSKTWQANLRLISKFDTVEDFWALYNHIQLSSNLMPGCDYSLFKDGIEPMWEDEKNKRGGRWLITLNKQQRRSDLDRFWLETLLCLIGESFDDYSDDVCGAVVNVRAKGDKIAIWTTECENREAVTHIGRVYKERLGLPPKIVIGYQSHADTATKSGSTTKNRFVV

SMILES: Cc1nc2cc(C(F)(F)F)cc(C#N)c2c(=O)n1CCOc1cc(F)c(Cl)cc1-c1ccnc2c(C(=O)O)csc12 [compound 1903]
- pIC50 [1]: 7.53

SMILES: Cc1cc(-c2cc(Cl)ccc2OCCn2c(C)nc3cc(C)c(CN4CCN(C)CC4)c(C#N)c3c2=O)c2scc(C(=O)O)c2n1 [compound 718]
- pIC50 [2]: > 7.30
- pIC50 [3]: 7.70

SMILES: N#Cc1cc2c(=O)n(CCOc3ccc(Cl)cc3-c3cc4c(c(C(=O)O)c3)OCC4)cnc2cn1 [compound 104]
- pIC50 [2]: 6.00 to 7.30
- pIC50 [3]: 6.23

SMILES: Cc1ccc(-c2cc(Cl)ccc2OCCn2c(C)nc3ccc(CCN(C)C)c(C#N)c3c2=O)c2scc(C(=O)O)c12 [compound 576]
- pIC50 [2]: > 7.30
- pIC50 [3]: 7.75

SMILES: CC(=O)CN1CCC(N(C)c2ncc3nc(C)n(CC#Cc4ccc(Cl)cc4-c4ccnc5c(C(=O)O)csc45)c(=O)c3c2C#N)CC1 [compound 1519]
- pIC50 [1]: 7.82

SMILES: Cc1nc2cnc(N3CCN(C4(C(F)F)CC4)CC3)c(C#N)c2c(=O)n1CC#Cc1ccc(Cl)cc1-c1ccnc2c(C(=O)O)csc12 [compound 1366]
- pIC50 [1]: 7.84

SMILES: Cc1nc2cnc(N(C)C3CCN([C@H]4C[C@@H](OC(F)(F)F)C4)CC3)c(C#N)c2c(=O)n1CC#Cc1ccc(Cl)cc1-c1ccnc2c(C(=O)NS(C)(=O)=O)csc12 [compound 1772]
- pIC50 [1]: 8.22

SMILES: Cc1nc2cnc(NC3CCCCC3)cc2c(=O)n1CCOc1ccc(Cl)cc1-c1cccc(C(=O)O)c1 [compound 2003]
- pIC50 [1]: 6.58

SMILES: Cc1cc(-c2cc(Cl)ccc2OCCn2c(C)nc3cc(C(F)(F)F)c(N(C)C)c(C#N)c3c2=O)c2scc(C(=O)O)c2n1 [compound 1619]
- pIC50 [1]: 7.50

SMILES: Cc1cc(-c2cc(Cl)ccc2OCCn2c(C)nc3cc(C(F)(F)F)c(-c4ncccn4)nc3c2=O)c2scc(C(=O)O)c2n1 [compound 765]
- pIC50 [2]: > 7.30
- pIC50 [3]: 8.04

SMILES: Cc1nc2cnc(N(C)C3CCN([C@H]4C[C@@H](OC(F)(F)F)C4)CC3)c(C#N)c2c(=O)n1CC#Cc1ccc(Cl)cc1-c1ccnc2c(C(=O)NS(=O)(=O)c3ccncc3)csc12 [compound 1773]
- pIC50 [1]: 7.32

SMILES: Cc1nc2cnc(N3CCN(CCF)C(C)(C)C3)c(C#N)c2c(=O)n1CCOc1ccc(Cl)cc1-c1ccnc2c(C(=O)O)csc12 [compound 1333]
- pIC50 [1]: 7.58

SMILES: Cc1cc(-c2cc(Cl)ccc2OCCn2c(C)nc3cc(C(F)(F)F)c(OCc4ccccn4)c(C#N)c3c2=O)c2scc(C(=O)O)c2n1 [compound 1033]
- pIC50 [2]: > 7.30
- pIC50 [3]: 7.70

SMILES: CCN(c1ncc2nc(C)n(CC#Cc3ccc(Cl)cc3-c3ccnc4c(C(=O)NS(=O)(=O)CCC#N)csc34)c(=O)c2c1C#N)C1CCN(C2COC2)CC1 [compound 1736]
- pIC50 [1]: 7.90

SMILES: Cc1nc2cnc(CC3CCN(CC(F)F)CC3)c(C#N)c2c(=O)n1CCOc1ccc(Cl)cc1-c1ccnc2c(C(=O)O)csc12 [compound 1484]
- pIC50 [1]: 7.64

SMILES: Cc1cc(-c2cc(Cl)ccc2OCCn2c(C)nc3cnc(C(C)(F)F)c(C#N)c3c2=O)c2scc(C(=O)O)c2n1 [compound 913]
- pIC50 [2]: > 7.30
- pIC50 [3]: 7.79

SMILES: Cc1nc2cnc(N(C)C3CCN(CC(=O)C4CC4)CC3)c(C#N)c2c(=O)n1CCOc1ccc(Cl)cc1-c1ccnc2c(C(=O)O)csc12 [compound 1128]
- pIC50 [2]: > 7.30
- pIC50 [3]: 7.62

SMILES: Cc1nc2cnc(N(C)C3CCN(CC(F)(F)C4CC4)CC3)c(C#N)c2c(=O)n1CCOc1ccc(Cl)cc1-c1ccnc2c(C(=O)O)csc12 [compound 1126]
- pIC50 [2]: > 7.30
- pIC50 [3]: 7.58

SMILES: Cc1cc(-c2cc(Cl)ccc2OCCn2c(C)nc3cc(Cl)c(N4CC(C)(CO)C4)c(C#N)c3c2=O)c2scc(C(=O)O)c2n1 [compound 703]
- pIC50 [2]: > 7.30
- pIC50 [3]: 8.50

SMILES: Cc1cc(-c2cc(Cl)ccc2OCCn2c(C)nc3cc(Cl)c(N4CC(F)(F)C4)c(C#N)c3c2=O)c2scc(C(=O)O)c2n1 [compound 688]
- pIC50 [2]: > 7.30
- pIC50 [3]: 7.64

SMILES: Cc1nc2cnc(N3CCC(N4CC(F)(F)C4)CC3)c(C#N)c2c(=O)n1CC#Cc1ccc(Cl)cc1-c1ccnc2c(C(=O)O)csc12 [compound 1467]
- pIC50 [1]: 7.96

SMILES: Cc1cc(-c2cc(Cl)ccc2OCCn2c(C)nc3cc(C(F)(F)F)cnc3c2=O)c2scc(C(=O)O)c2n1 [compound 337]
- pIC50 [2]: > 7.30
- pIC50 [3]: 7.59

SMILES: Cc1nc2cc(Cl)c(C(F)F)c(C#N)c2c(=O)n1CCOc1ccc(Cl)cc1-c1ccnc2c(C(=O)NS(C)(=O)=O)csc12 [compound 520]
- pIC50 [2]: > 7.30
- pIC50 [3]: 7.74

SMILES: Cc1nc2cnc(N(C)C3CCN(C4(C(F)F)CC4)CC3)c(C#N)c2c(=O)n1CCOc1ccc(Cl)cc1-c1ccnc2c(C(=O)O)csc12 [compound 1430]
- pIC50 [1]: 7.64

SMILES: Cc1nc2cc(C(F)(F)F)cc(C#N)c2c(=O)n1CCOc1ccc(Cl)cc1-c1ccnc2c(C(=O)O)c[nH]c12 [compound 323]
- pIC50 [2]: 6.00 to 7.30
- pIC50 [3]: 7.08

SMILES: Cc1nc2cnc(N(C)[C@H]3C[C@H](N(C)CCF)C3)c(C#N)c2c(=O)n1CC#Cc1ccc(Cl)cc1-c1ccnc2c(C(=O)O)csc12 [compound 1532]
- pIC50 [1]: 7.95

SMILES: CCN(c1ncc2nc(C)n(CC#Cc3ccc(Cl)cc3-c3ccnc4c(C(=O)NS(=O)(=O)C5CC5)csc34)c(=O)c2c1C#N)C1CCN(C2COC2)CC1 [compound 1749]
- pIC50 [1]: 7.79

SMILES: Cc1nc2c(F)c(Cl)c(C(F)F)c(C#N)c2c(=O)n1CCOc1ccc(Cl)cc1-c1ccnc2c(C(=O)O)csc12 [compound 498]
- pIC50 [2]: > 7.30
- pIC50 [3]: 7.62

SMILES: Cc1cc(-c2cc(Cl)ccc2OCCn2c(C)nc3cc(C(F)(F)F)c(N4CCN(C)CC4)c(C#N)c3c2=O)c2scc(C(O)(O)C(F)(F)F)c2n1 [compound 1079]
- pIC50 [3]: 7.25

SMILES: CCN(c1ncc2nc(C)n(CC#Cc3ccc(Cl)cc3-c3ccnc4c(C(=O)NS(C)(=O)=O)csc34)c(=O)c2c1C#N)C1CCN([C@H]2C[C@@H](OC(F)(F)F)C2)CC1 [compound 1776]
- pIC50 [1]: 8.44

SMILES: Cc1nc2cnc(N(C)C3CCN(C4CC(F)(F)C4)CC3)c(C#N)c2c(=O)n1CCOc1ccc(Cl)cc1-c1ccnc2c(C(=O)O)csc12 [compound 1477]
- pIC50 [1]: 7.74

SMILES: Cc1nc2cncc(C#N)c2c(=O)n1CCOc1ccc(Cl)cc1-c1ccnc(C(=O)O)c1 [compound 35]
- pIC50 [2]: > 7.30
- pIC50 [3]: 7.35

SMILES: CCN(c1ncc2nc(C)n(CC#Cc3ccc(Cl)cc3-c3ccnc4c(C(=O)NS(C)(=O)=O)csc34)c(=O)c2c1C#N)C1CCN(C2COC2)CC1 [compound 1578]
- pIC50 [1]: 7.69

SMILES: Cc1nc2cc3c(c(C#N)c2c(=O)n1CCOc1ccc(Cl)cc1-c1ccnc2c(C(=O)O)csc12)S(=O)(=O)N(C)C3 [compound 1953]
- pIC50 [1]: 7.05

SMILES: Cc1nc2cc(C(F)(F)F)cc(C#N)c2c(=O)n1CCOc1ccc(Cl)cc1-c1csc2c(C(=O)O)ccnc12 [compound 299]
- pIC50 [2]: > 7.30
- pIC50 [3]: 7.65

SMILES: Cc1cc(-c2cc(CN3CCN(C)CC3)ccc2OCCn2c(C)nc3cc(F)c(CN4CCN(C)CC4)c(C#N)c3c2=O)c2scc(C(=O)O)c2n1 [compound 2027]
- pIC50 [1]: < 6.00

SMILES: CC(=O)N1CCN(c2c(C(F)(F)F)cc3nc(C)n(CCOc4ccc(Cl)cc4-c4cccc(C(=O)O)c4)c(=O)c3c2C#N)CC1 [compound 378]
- pIC50 [2]: > 7.30
- pIC50 [3]: 7.35

SMILES: Cc1cc(-c2cc(Cl)ccc2OCCn2c(C)nc3cc(C(F)(F)F)c(-c4ccccc4C(N)=O)nc3c2=O)c2scc(C(=O)O)c2n1 [345b]
- pIC50 [3]: 7.60

SMILES: Cc1nc2cnc(N(C)C3CCN(CC(C)(F)F)CC3)c(C#N)c2c(=O)n1CC#Cc1ccc(Cl)cc1-c1ccnc2c(C(=O)NS(=O)(=O)c3cccnc3)csc12 [compound 1144]
- pIC50 [2]: > 7.30
- pIC50 [3]: 7.46

SMILES: Cc1sc2c(-c3cc(Cl)ccc3OCCn3c(C)nc4cc(C(F)(F)F)c(N5CCN(C)CC5)c(C#N)c4c3=O)ccnc2c1C [compound 1252]
- pIC50 [1]: 6.65

SMILES: C#Cc1sc2c(-c3cc(Cl)ccc3OCCn3c(C)nc4cc(C(F)(F)F)cc(C#N)c4c3=O)ccnc2c1C(=O)O [compound 267]
- pIC50 [2]: 6.00 to 7.30
- pIC50 [3]: 7.13

SMILES: Cc1nc2cnc(N(C)C3CCN([C@H]4C[C@H](OC(F)F)C4)CC3)c(C#N)c2c(=O)n1CC#Cc1ccc(Cl)cc1-c1ccnc2c(C(=O)NS(=O)(=O)c3ccncc3)csc12 [compound 1764]
- pIC50 [1]: 7.72

SMILES: CCN(c1ncc2nc(C)n(CC#Cc3ccc(Cl)cc3-c3ccnc4c(C(=O)NS(=O)(=O)C(C)C)csc34)c(=O)c2c1C#N)C1CCN(C2COC2)CC1 [compound 1746]
- pIC50 [1]: 7.97

SMILES: Cc1cnc2c(C(=O)O)csc2c1-c1cc(Cl)ccc1OCCn1c(C)nc2cc(C(F)(F)F)cc(C#N)c2c1=O [compound 495]
- pIC50 [2]: 6.00 to 7.30
- pIC50 [3]: 6.63

SMILES: Cc1nc2cc(F)c(F)c(C#N)c2c(=O)n1CCOc1ccc(Cl)cc1-c1ccnc2c(C(=O)NS(C)(=O)=O)csc12 [compound 307]
- pIC50 [2]: 6.00 to 7.30
- pIC50 [3]: 7.23

SMILES: Cc1nc2cnc(N(C)C3CCN(CC(F)(F)F)CC3)c(C#N)c2c(=O)n1CC#Cc1ccc(Cl)cc1-c1ccnc2c(C(=O)NS(=O)(=O)CC#N)csc12 [compound 1670]
- pIC50 [1]: 8.25

SMILES: COC(=O)c1csc2c(-c3cc(Cl)ccc3C#CCn3c(C)nc4cnc(N(C)C5CCN(CC(C)(F)F)CC5)c(C#N)c4c3=O)ccnc12 [compound 980]
- pIC50 [2]: > 7.30
- pIC50 [3]: 7.81

SMILES: Cc1nc2cc(C(F)(F)F)cc(C#N)c2c(=O)n1CCOc1ccc(Cl)cc1-c1cc(Cl)nc2c(C(=O)O)csc12 [compound 444]
- pIC50 [2]: > 7.30
- pIC50 [3]: 7.51

SMILES: Cc1cc(-c2cc(Cl)ccc2OCCn2c(C)nc3cnc(Oc4ccccc4)c(C#N)c3c2=O)c2scc(C(=O)O)c2n1 [compound 1038]
- pIC50 [2]: > 7.30
- pIC50 [3]: 7.41

SMILES: Cc1nc2cnc(N(C)C3CCN([C@H]4C[C@H](F)C4)CC3)c(C#N)c2c(=O)n1CC#Cc1ccc(Cl)cc1-c1ccnc2c(C(=O)NS(=O)(=O)c3ccncc3)csc12 [compound 1792]
- pIC50 [1]: 8.03

SMILES: CCN(c1ncc2nc(C)n(CC#Cc3ccc(Cl)cc3-c3ccnc4c(C(=O)O)csc34)c(=O)c2c1C#N)C1CCN(C2COC2)CC1 [compound 1186]
- pIC50 [2]: > 7.30
- pIC50 [3]: 7.70
